Laboratory results from patent publication US20110294721A1, “ANTIMICROBIAL PEPTIDES” (priority 2008, published 2011).
Like-named read-outs stand apart in the source and are kept apart here. No end group written: not given here.

Experiments:
Escherichia coli (DH5α) = type: cell-based
Experimental: (§1) In-vitro inhibition assays were performed in sterile ELISA-plates (Greiner bio-one, Frickenhausen or Nunc, Wiesbaden). Antimicrobial peptides were dissolved in 0.01% acetic acid containing 0.2% BSA and stored at −20° C. For inhibition assays dilutions of peptides ranging from 5 to 500 μg/ml were prepared and 10 μl of each concentration was loaded per well.
(§2) The optical density of bacteria overnight cultures were adjusted to 0.08-0.1 and diluted in BHI-medium (1:1000). 90 μl of this suspension containing about 10^5-10^6 CFU/ml of tested bacteria were added to each well resulting in final peptide concentrations of 0, 0.5, 1, 2, 5, 10, 20, and 50 μg/ml. After incubation for one day at 27° C. growth inhibition of the bacteria was analyzed by a ELISA microplate reader. The lowest concentration, in which there is no observable growth (>90% inhibition) is referred to as minimal inhibitory concentration (MIC).
(§3) In-vitro inhibition assays were performed as described in Example 5 above.

Staphylococcus aureus = type: cell-based
Experimental: as §1, §2, §3

Xanthomonas vesicatoria [1] = test system: Xanthomonas vesicatoria
Klebsiella pneumoniae = type: cell-based
Experimental: (§4) In-vitro inhibition assays were performed in sterile ELISA-plates (Greiner bio-one, Frickenhausen or Nunc, Wiesbaden). Antimicrobial peptides were dissolved in 0.01% acetic acid containing 0.2% BSA and stored at −20° C. […] After incubation for one day at 27° C. growth inhibition of the bacteria was analyzed by a ELISA microplate reader.

Klebsiiella oxytoca = type: cell-based
Experimental: as §4

Pseudomonas aeruginosa = type: cell-based
Experimental: as §4

[2] = test system: Staphylococcus epidermidis; type: cell-based
Experimental: as §4

Enterobacter cloacae = type: cell-based
Experimental: as §4

Yersinia enterocolitica = type: cell-based
Experimental: as §4

Pseudomonas corrugata [3] = test system: Pseudomonas corrugata
[4] = test system: Pectobacterium carotovorum sub. carotovorum
[5] = test system: Pseudomonas syringae pv. syringae
Alternaria alternata = experiment: MIC in-vitro inhibition assay, antifungal (Example 2); type: cell-based; settings: complete inhibition of spore germination/mycelial growth; Table 1
Experimental: as §1, with “flat-bottom 96-well plates” for “ELISA-plates”, “Frickenhausen).” for “Frickenhausen or Nunc, Wiesbaden).”, “BSA (500 μg/ml), filter sterilized” for “BSA”, “200” for “500”, “μl (antibacterial assay) or 20 μl (antifungal assay)” for “μl”
(§5) Spores of fungi were collected by water washes of sporulating cultures grown on 2% malt extract agar and spore concentration was determined by microscopy. The concentration of the spores was adjusted to 1.5-2×10^3 spores/ml in 2% malt extract medium and 80 μl of fungal spores were added per well. The final peptide concentrations used in the fungal inhibition assays were 0, 2, 4, 10, 20, 40, and 100 μg/ml. After overnight incubation at room temperature the plate were put on a rotary shaker (300 rpm) for further two days to ensure consistantly growth. Antifungal effects of the peptides were determined by a microplate reader (Altemaria, Fusarium) at OD590 nm or by visual screening of the plates (Bottytis, Cladosporium).
(§6) The lowest peptide concentration leading to complete inhibition of bacterial growth or spore germination/mycelial growth (minimal inhibition concentration, MIC) was determined for each organism-peptide combination. For each peptide concentration two identical inhibition assays were performed.

Cladosporium herbarum = experiment: as above; type: cell-based; settings: complete inhibition of spore germination/mycelial growth; Table 1
Experimental: as §1, with “flat-bottom 96-well plates” for “ELISA-plates”, “Frickenhausen).” for “Frickenhausen or Nunc, Wiesbaden).”, “BSA (500 μg/ml), filter sterilized” for “BSA”, “200” for “500”, “μl (antibacterial assay) or 20 μl (antifungal assay)” for “μl”
as §5, §6

Botrytis cinerea = experiment: as above; type: cell-based; settings: complete inhibition of spore germination/mycelial growth; Table 1
Experimental: as §1, with “flat-bottom 96-well plates” for “ELISA-plates”, “Frickenhausen).” for “Frickenhausen or Nunc, Wiesbaden).”, “BSA (500 μg/ml), filter sterilized” for “BSA”, “200” for “500”, “μl (antibacterial assay) or 20 μl (antifungal assay)” for “μl”
as §5, §6

[6] = test system: Pseudomonas syringae pv. tomato
[7] = test system: Clavibacter michiganensis sub. michiganensis; settings: complete inhibition of bacterial growth; overnight 25° C.; Table 1
[8] = test system: Pseudomonas syringae pv. syringae; experiment: MIC and lethal concentration (LC) assay (Example 3); type: cell-based; settings: Table 2; for LC (lethal concentration): 100% inhibition after at least 4 days of incubation; for MIC: >90% inhibition, 1-2 days at 25° C.
Experimental: as §1, with “flat-bottom 96-well plates” for “ELISA-plates”, “Frickenhausen).” for “Frickenhausen or Nunc, Wiesbaden).”, “BSA (500 μg/ml), filter sterilized” for “BSA”, “200” for “500”, “μl (antibacterial assay) or 20 μl (antifungal assay)” for “μl”
(§7) Bacteria colonies from overnight agar plate cultures were resuspended into 5 ml LB-medium or HPG-medium (OD600 nm=0.08-0.1) and diluted into LB-medium/HPG-medium (1:100). 90 μl of this suspension containing about 10^5-10^6 CFU/ml of tested bacteria were added to each well resulting in final peptide concentrations of 0, 0.5, 1, 2, 5, 10, and 20 μg/ml. […] The lowest concentration, in which there is no observable growth (>90% inhibition) is referred to as minimal inhibitory concentration (MIC). […] For each peptide concentration two identical inhibition assays were performed.

Xanthomonas vesicatoria [9] = experiment: as above; type: cell-based; settings: Table 2; for LC (lethal concentration): 100% inhibition after at least 4 days of incubation; for MIC: >90% inhibition, 1-2 days at 25° C.
Experimental: as §1, with “flat-bottom 96-well plates” for “ELISA-plates”, “Frickenhausen).” for “Frickenhausen or Nunc, Wiesbaden).”, “BSA (500 μg/ml), filter sterilized” for “BSA”, “200” for “500”, “μl (antibacterial assay) or 20 μl (antifungal assay)” for “μl”
as §7

[10] = test system: Pectobacterium carotovorum; experiment: as above; type: cell-based; settings: Table 2; for LC (lethal concentration): 100% inhibition after at least 4 days of incubation; for MIC: >90% inhibition, 1-2 days at 25° C.
Experimental: as §1, with “flat-bottom 96-well plates” for “ELISA-plates”, “Frickenhausen).” for “Frickenhausen or Nunc, Wiesbaden).”, “BSA (500 μg/ml), filter sterilized” for “BSA”, “200” for “500”, “μl (antibacterial assay) or 20 μl (antifungal assay)” for “μl”
as §7

[11] = test system: Pseudomonas syringae pv. tomato; experiment: as above; type: cell-based; settings: Table 2; for LC (lethal concentration): 100% inhibition after at least 4 days of incubation; for MIC: >90% inhibition, 1-2 days at 25° C.
Experimental: as §1, with “flat-bottom 96-well plates” for “ELISA-plates”, “Frickenhausen).” for “Frickenhausen or Nunc, Wiesbaden).”, “BSA (500 μg/ml), filter sterilized” for “BSA”, “200” for “500”, “μl (antibacterial assay) or 20 μl (antifungal assay)” for “μl”
as §7

[12] = test system: Clavibacter michiganensis; experiment: as above; type: cell-based; settings: Table 2; for LC (lethal concentration): 100% inhibition after at least 4 days of incubation; for MIC: >90% inhibition, 1-2 days at 25° C.
Experimental: as §1, with “flat-bottom 96-well plates” for “ELISA-plates”, “Frickenhausen).” for “Frickenhausen or Nunc, Wiesbaden).”, “BSA (500 μg/ml), filter sterilized” for “BSA”, “200” for “500”, “μl (antibacterial assay) or 20 μl (antifungal assay)” for “μl”
as §7

Pseudomonas corrugata [13] = settings: Table 2; for LC (lethal concentration): 100% inhibition after at least 4 days of incubation; for MIC: >90% inhibition, 1-2 days at 25° C.
Experimental: as §1, with “flat-bottom 96-well plates” for “ELISA-plates”, “Frickenhausen).” for “Frickenhausen or Nunc, Wiesbaden).”, “BSA (500 μg/ml), filter sterilized” for “BSA”, “200” for “500”, “μl (antibacterial assay) or 20 μl (antifungal assay)” for “μl”
as §7

[14] = test system: human immundeficiency virus (HIV); type: cell-based; settings: HeLa cells pre-treated 30 min at 37° C.; red fluorescence after 72 h; read-out: IC50, concentration where the infection is decreased by 50% (compared to non-treated controls)
Experimental: Cells were pretreated with 6.3 μg/ml SP13-3 and SP13-14 or buffer for 30 min at 37° C. before addition of virus particles. […] Shown is an overlay of pictures taken under transmitted light and fluorescence after 72 hours incubation. The viability of the HeLa cells was determined by measuring the activity of the mitochondrial dehydrogenase.
To measure the activity of the designed oligopeptides against human immundeficiency virus (HIV) a fluorescence-based reporter system was used. HeLa cells (LC5-RIC) harbour a reporter gene, which regulates in dependency of HIV Rev and Tat proteins the synthesis of a red fluorescing protein. In this way the infection of the HeLa cells (LC5-RIC) is indicated and the infection rate can be quantified using a fluorescence microplate reader.
(§8) Antimicrobial oligopeptides were dissolved in 0.01% acetic acid containing 0.2% BSA (500 μg/ml), filter sterilized and stored at −20° C. […] (in 5% CO2). Afterwards, virus particles were added to the pre-treated HeLa cells and the infection was quantified by measuring red fluorescence with a fluorescence microplate reader after 72 h incubation. The viability of the HeLa cells was determined by measuring the activity of the mitochondrial dehydrogenase according to Lindl and Bauer (1994) and Mosmann (1983).

HeLa cells (LC5-RIC) = type: cell-based, human
Experimental: as §8

Xylella fastidiosa = settings: reported by Kuzina et al (2006); cited from earlier work
[15] = complete inhibition of bacterial growth, overnight 25° C., Table 1

| Substance | Minimal inhibition concentration (MIC) (Xanthomonas vesicatoria [1]; [15]) [µg/mL] | Minimal inhibition concentration (MIC) (Pseudomonas corrugata [3]; [15]) [µg/mL] | Minimal inhibition concentration (MIC) [4, 15] [µg/mL] | Minimal inhibition concentration (MIC) [5, 15] [µg/mL] | Minimal inhibition concentration (MIC) (Alternaria alternata) [µg/mL] | Minimal inhibition concentration (MIC) (Cladosporium herbarum) [µg/mL] | Minimal inhibition concentration (MIC) (Botrytis cinerea) [µg/mL] | Minimal inhibition concentration (MIC) [6, 15] [µg/mL] | Minimal inhibition concentration (MIC) [7] [µg/mL] | LC (lethal concentration) [8] | MIC [8] | LC (lethal concentration) (Xanthomonas vesicatoria [9]) [µg/mL] | MIC (Xanthomonas vesicatoria [9]) [µg/mL] | LC (lethal concentration) [10] | MIC [10] | LC (lethal concentration) [11] | MIC [11] | LC (lethal concentration) [12] [µg/mL] | MIC [12] [µg/mL] | LC (lethal concentration) (Pseudomonas corrugata [13]) | also measured |
| --- | --- | --- | --- | --- | --- | --- | --- | --- | --- | --- | --- | --- | --- | --- | --- | --- | --- | --- | --- | --- | --- |
| KRRLAAFRAFRGALKSVLKK-NH2 [SP16] | 5 | 2.5 | >40 | 5 | >100 | 20 | >100 | 5 |  |  |  |  |  |  |  |  |  |  |  |  | Activity against human pathogens (MIC) (Escherichia coli (DH5α)): 10 µg/mL; Activity against human pathogens (MIC) (Staphylococcus aureus): >50 µg/mL; Activity against human pathogens (MIC) (Klebsiella pneumoniae): >50 µg/mL; Activity against human pathogens (MIC) (Klebsiiella oxytoca): >50 µg/mL; Activity against human pathogens (MIC) (Pseudomonas aeruginosa): >50 µg/mL; Activity against human pathogens (MIC) [2]: 20 µg/mL; Activity against human pathogens (MIC) (Enterobacter cloacae): >50 µg/mL; Activity against human pathogens (MIC) (Yersinia enterocolitica): >50 µg/mL |
| KRRLIARILRLAARALVKKR (also: D-amino acids at unstated positions) [SP13-D] | 2 | 40 | >40 | 2.5 | 20 | 5 | >40 | 1 | 10 |  |  |  |  |  |  |  |  |  |  |  |  |
| KRRLIARILRLAARALVKKR-NH2 [SP13] |  |  |  |  | >100 | 20 | >100 |  | 2.5 | 0.5/0.5 μg/ml | 0.5/0.5 μg/ml | 0.5 | 0.1 | 10/>10 μg/ml | 10/>10 μg/ml | 5.0/5.0 μg/ml | 5.0/5.0 μg/ml | 1.0 | 0.25 | 1.0 µg/mL | Minimal inhibition concentration (MIC) (Xanthomonas vesicatoria [1]): 2.5 µg/mL; Minimal inhibition concentration (MIC) (Pseudomonas corrugata [3]): 2.5 µg/mL; Minimal inhibition concentration (MIC) [4]: >40 µg/mL; Minimal inhibition concentration (MIC) [5]: 10 µg/mL; Minimal inhibition concentration (MIC) [6]: 20 µg/mL; MIC (Pseudomonas corrugata [13]): 0.25 µg/mL |
| KRRLILRILRLAIRILVKKR-NH2 [SP13-3] |  |  |  |  |  |  |  |  |  | >10/>10 μg/ml | >10/>10 μg/ml | 10 | 2.5 | >10/>10 μg/ml | >10/>10 μg/ml | 10/10 μg/ml | 10/10 μg/ml | 10 | 2.5 | >10/>10 μg/ml | IC50 [14]: 2100 nM; negative/toxic effect on test cells (HeLa cells) (HeLa cells (LC5-RIC)): No negative/toxic effect; MIC (Pseudomonas corrugata [13]): >10/>10 μg/ml |
| Magainin-2 |  |  |  |  |  |  |  |  |  |  |  |  |  |  |  |  |  |  |  |  | activity against Xylella fastidiosa (Xylella fastidiosa): active |
